test system: tumor-repopulating cells of B16-F1 melanoma; test: Inhibitory activity on proliferation of tumor-repopulating cells (TRCs) of B16-F1 melanoma in 3D fibrin gel; assay type: cell-based; settings: Mus musculus, B16-F1, 120 h; 10 μM, incubated 5 days, colony tumor size; read-out: Inhibition rate on TRCs of B16-F1 melanoma at a concentration of 10 μM (%)
Description: B16-F1 Melanoma cells were incubated with 3D fibrin gel medium (90-Pa) for 5 days, and the desired tumor-repopulating cells of melanoma were screened (Nat. Mater. 2012, 11, 734). Subsequently, the culture medium was respectively treated with collagenase and neutral protease II, and the tumor-repopulating cells of B16-F1 melanoma were released, then the obtained repopulating cells were transferred to a freshly prepared medium to be resuspended and maintained at single-cell state. The tumor-repopulating cells of B16-F1 melanoma were inoculated in 3D fibrin gel medium (90-Pa) for 5 days, with 0.1% DMSO as the negative control group, Tazarotene and Bexarotene as the positive control drugs respectively, […] for 5 days. The colony tumor size was measured and calculated, and the inhibition rate of each drug on the tumor-repopulating cells of B16-F1 melanoma was calculated. The results of inhibitory activity of the compound of the present invention on the proliferation of tumor-repopulating cells of B16-F1 melanoma were shown in Table 2 below.

Compound | inhibition at 10 µM [%]
CCOC(=O)c1ncc(C#Cc2ccc3c(c2)C(C)(C)CC[S+]3[O-])cn1 (stereo not drawn) [WYC-208, ethyl 5-((4,4-dimethyl-1-oxothiochroman-6-yl)ethynyl)pyrimidin-2-carboxylate] | 27.7
CC1(C)CC[S+]([O-])c2ccc(C#Cc3ncc(C(=O)O)cn3)cc21 (stereo not drawn) [WYC-210, 2-((4,4-dimethyl-1-oxothiochroman-6-yl)ethynyl)pyrimidin-5-carboxylic Acid] | 18.1
CCOC(=O)c1cnc(C#Cc2ccc3c(c2)C(C)(C)CCS3)nc1 [WYC-203, ethyl 2-((4,4-dimethylthiochroman-6-yl)ethynyl)pyrimidin-5-carboxylate] | 90.5
CCOC(=O)c1cnc(C#Cc2ccc3c(c2)C(C)(C)CC[S+]3[O-])cn1 (stereo not drawn) [WYC-324, ethyl 5-((4,4-dimethyl-1-oxothiochroman-6-yl)ethynyl)pyrazin-2-carboxylate] | 85.1
CCOC(=O)c1ccc(C#Cc2ccc3c(c2)C(C)(C)CCS3)cc1F [WYC-303, ethyl 2-fluoro-4-((4,4-dimethylthiochroman-6-yl)ethynyl)benzoate] | 71.1
CCOC(=O)c1ccc(C#Cc2ccc3c(c2)C(C)(C)CCS3)c([N+](=O)[O-])c1 [WYC-308, ethyl 3-nitro-4-((4,4-dimethylthiochroman-6-yl)ethynyl)benzoate] | 71.9
CC1(C)CCSc2ccc(C#Cc3ccc(C(=O)O)c(F)c3)cc21 [WYC-304, 2-fluoro-4-((4,4-dimethylthiochroman-6-yl)ethynyl)benzoic Acid] | 75.8
CCOC(=O)c1ccc(C#Cc2ccc3c(c2)C(C)(C)CCC3(C)C)cn1 [WYC-341, ethyl 5-((5,5,8,8-tetramethyl-5,6,7,8-tetrahydronaphth-2-yl)ethynyl)pyridin-2-carboxylate] | 87
CC(=O)Nc1cc(C(=O)O)ccc1C#Cc1ccc2c(c1)C(C)(C)CCS2 [WYC-319, 3-acetamido-4-((4,4-dimethylthiochroman-6-yl)ethynyl)benzoic Acid] | 65.8
COC(=O)c1ccc(C#Cc2ccc3c(c2)C(c2ccccc2)=CCC3(C)C)cc1O [WYC-301, methyl 4-((5,5-dimethyl-8-phenyl-5,6-dihydronaphth-2-yl)ethynyl)-2-hydroxybenzoate] | 34.4
COc1cc(C#Cc2ccc3c(c2)C(C)(C)CCS3)ccc1C(=O)O [WYC-106] | 72.4
CC1(C)CCSc2ccc(C#Cc3ccc(C(=O)O)cc3F)cc21 [WYC-310, 3-fluoro-4((4,4-dimethylthiochroman-6-yl)ethynyl)benzoic Acid] | 76.8
CCOC(=O)c1ccc(C#Cc2ccc3c(c2)C(C)(C)CCS3)c(NC(C)=O)c1 [WYC-317, ethyl 3-acetamido-4-((4,4-dimethylthiochroman-6-yl)ethynyl)benzoate] | 86.4
CCOC(=O)c1ncc(C#Cc2ccc3c(c2)C(C)(C)CCC3(C)C)cn1 [WYC-334, ethyl 5-((5,5,8,8-tetramethyl-5,6,7,8-tetrahydronaphth-2-yl)ethynyl)pyrimidin-2-carboxylate] | 80.6
COC(=O)c1ccc(C#Cc2ccc3c(c2)C(C)(C)CC[S+]3[O-])c(NC(C)=O)c1 (stereo not drawn) [WYC-321, methyl 3-acetamido-4-((4,4-dimethyl-1-oxothiochroman-6-yl)ethynyl)benzoate] | 78.2
CC1(C)CCSc2ccc(C#Cc3ccc(C(=O)O)c(Cl)c3)cc21 [WYC-327, 2-chloro-4-((4,4-dimethylthiochroman-6-yl)ethynyl)benzoic Acid] | 75.7
CC1(C)CCC(C)(C)c2cc(C#Cc3ccc(C(=O)O)c(O)c3)ccc21 [WYC-335, 2-hydroxy-4-((5,5,8,8-tetramethyl-5,6,7,8-tetrahydronaphth-2-yl)ethynyl)benzoic Acid] | 86.9
CCOC(=O)c1ccc(C#Cc2ccc3c(c2)C(C)(C)CC[S+]3[O-])c(F)c1F (stereo not drawn) [WYC-315, ethyl 2,3-difluoro-4-((4,4-dimethyl-1-oxothiochroman-6-yl)ethynyl)benzoate] | 70.1
